# Active and inactive are the calls of the source. For most assays here, no stated cut-off is given here; in the data, actives have a measured EC50 and inactives only a lower limit.
# Tests used:
# [1] = NIH-3T3 fibroblast cytotoxicity, dose response, cytotoxicity control, cell-based, fluorescence, Alamar Blue, secondary assay (AID 2327); format: functional;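 further: NIH-3T3 mouse fibroblasts cultured with fluconazole at 8 µg/mL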
# [2] = C. albicans growth with fluconazole, confirmation, fluorescence, retest (AID 2467); format: functional, cell-based
# [3] = biological target: T1, Serine/threonine-protein phosphatase (Candida dubliniensis (strain CD36 / CBS 7987 / NCPF 3949 / NRRLY-17841) (Yeast), UniProt B9W6M3); experiment: calcineurin pathway inhibitors in yeast reporter, dose response, S. cerevisiae, CDRE-lacZ, luminescence, secondary (AID 2388); format: functional, cell-based;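 further: yeast reporter cells carrying a calcineurin-responsive lacZ construct stimulated with calcium chloride; luminescent beta-galactosidase reporter signal in whole cells rather than isolated phosphatase activity; potency for inhibition where a drop in reporter signal means calcineurin blockade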
# T1 sequence (B9W6M3 whole entry): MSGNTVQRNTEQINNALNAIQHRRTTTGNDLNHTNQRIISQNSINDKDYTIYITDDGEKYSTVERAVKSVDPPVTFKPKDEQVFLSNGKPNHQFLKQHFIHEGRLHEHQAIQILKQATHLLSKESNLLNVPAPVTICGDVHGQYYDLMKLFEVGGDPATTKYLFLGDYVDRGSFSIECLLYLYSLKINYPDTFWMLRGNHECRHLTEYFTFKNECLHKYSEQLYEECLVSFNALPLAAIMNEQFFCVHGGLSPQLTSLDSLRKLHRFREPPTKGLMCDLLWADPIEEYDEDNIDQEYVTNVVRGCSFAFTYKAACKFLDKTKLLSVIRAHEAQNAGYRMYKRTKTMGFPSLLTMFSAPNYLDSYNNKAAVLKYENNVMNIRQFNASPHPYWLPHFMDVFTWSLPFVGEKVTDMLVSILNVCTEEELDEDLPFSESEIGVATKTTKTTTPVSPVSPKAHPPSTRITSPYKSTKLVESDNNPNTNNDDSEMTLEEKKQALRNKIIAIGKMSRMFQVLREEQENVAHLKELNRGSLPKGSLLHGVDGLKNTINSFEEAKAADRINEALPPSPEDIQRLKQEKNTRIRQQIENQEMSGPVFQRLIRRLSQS
# [4] = biological target: FAD-linked sulfhydryl oxidase ALR (Homo sapiens, UniProt P55789); experiment: inhibitors of human ALR sulfhydryl oxidase, dose response, biochemical, H2O2 detection, luminescence, cherry-pick (AID 493248)
# Sequence of FAD-linked sulfhydryl oxidase ALR (P55789 whole entry): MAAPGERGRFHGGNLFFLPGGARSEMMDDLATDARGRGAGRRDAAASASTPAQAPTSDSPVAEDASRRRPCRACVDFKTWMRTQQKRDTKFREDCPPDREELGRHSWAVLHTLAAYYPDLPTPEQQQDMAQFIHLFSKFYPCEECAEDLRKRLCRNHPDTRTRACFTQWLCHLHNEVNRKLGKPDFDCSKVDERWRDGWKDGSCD
# [5] = biological target: ATP-dependent molecular chaperone HSP82 (Candida albicans (strain WO-1) (Yeast), UniProt C4YTQ8); experiment: loss of DOC-induced GRE-beta-galactosidase reporter signal, dose response, Hsp90 inhibitor project, S. cerevisiae, luminescence (AID 2400); format: functional, cell-based;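 further: beta-galactosidase luminescence from glucocorticoid response element reporter as proxy for Hsp90 function; inhibitor potency where signal loss means Hsp90 inhibition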
# Sequence of ATP-dependent molecular chaperone HSP82 (C4YTQ8 whole entry): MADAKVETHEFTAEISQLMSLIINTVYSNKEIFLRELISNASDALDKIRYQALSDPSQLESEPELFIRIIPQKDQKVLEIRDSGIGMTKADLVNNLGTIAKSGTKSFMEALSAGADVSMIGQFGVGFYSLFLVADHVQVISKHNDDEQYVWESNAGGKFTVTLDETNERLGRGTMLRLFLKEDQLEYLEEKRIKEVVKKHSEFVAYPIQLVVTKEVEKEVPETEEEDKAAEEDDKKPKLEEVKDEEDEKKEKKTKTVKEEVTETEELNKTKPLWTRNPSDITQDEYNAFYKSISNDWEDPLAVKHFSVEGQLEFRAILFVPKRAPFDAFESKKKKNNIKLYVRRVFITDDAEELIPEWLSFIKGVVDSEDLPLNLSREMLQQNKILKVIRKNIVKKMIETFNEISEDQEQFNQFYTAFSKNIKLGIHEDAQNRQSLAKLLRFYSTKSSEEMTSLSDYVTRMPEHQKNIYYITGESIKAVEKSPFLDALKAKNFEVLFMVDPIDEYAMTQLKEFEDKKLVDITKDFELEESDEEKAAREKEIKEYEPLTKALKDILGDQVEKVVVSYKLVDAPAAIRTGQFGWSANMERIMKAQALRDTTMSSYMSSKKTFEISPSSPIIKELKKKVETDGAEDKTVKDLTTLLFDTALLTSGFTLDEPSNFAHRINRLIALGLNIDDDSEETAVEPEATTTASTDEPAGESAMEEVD
# Escherichia coli = experiment: microbe, parasite or virus in culture
# [6] = biological target: Peroxisome proliferator-activated receptor gamma/Nuclear receptor coactivator 2 (Homo sapiens, UniProt P37231); format: functional;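 further: agonist potency for raising coactivator recruitment to the receptor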
# [7] = biological target: Peroxisome proliferator-activated receptor gamma/Nuclear receptor coactivator 1 (Homo sapiens, UniProt P37231); format: functional;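 further: agonist potency as compounds enhance coactivator SRC-1 recruitment to PPARgamma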
# [8] = inhibitors of firefly luciferase expression or activity, dose response, H4 neuroglioma cells, luminescence (AID 1990); format: functional, cell-based
# [9] = biological target: Peroxisome proliferator-activated receptor gamma/Nuclear receptor coactivator 3 (Homo sapiens, UniProt P37231); format: functional;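 further: agonist potency for raising coactivator recruitment to the receptor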
# Sequence of Peroxisome proliferator-activated receptor gamma/Nuclear receptor coactivator 3 (P37231 whole entry): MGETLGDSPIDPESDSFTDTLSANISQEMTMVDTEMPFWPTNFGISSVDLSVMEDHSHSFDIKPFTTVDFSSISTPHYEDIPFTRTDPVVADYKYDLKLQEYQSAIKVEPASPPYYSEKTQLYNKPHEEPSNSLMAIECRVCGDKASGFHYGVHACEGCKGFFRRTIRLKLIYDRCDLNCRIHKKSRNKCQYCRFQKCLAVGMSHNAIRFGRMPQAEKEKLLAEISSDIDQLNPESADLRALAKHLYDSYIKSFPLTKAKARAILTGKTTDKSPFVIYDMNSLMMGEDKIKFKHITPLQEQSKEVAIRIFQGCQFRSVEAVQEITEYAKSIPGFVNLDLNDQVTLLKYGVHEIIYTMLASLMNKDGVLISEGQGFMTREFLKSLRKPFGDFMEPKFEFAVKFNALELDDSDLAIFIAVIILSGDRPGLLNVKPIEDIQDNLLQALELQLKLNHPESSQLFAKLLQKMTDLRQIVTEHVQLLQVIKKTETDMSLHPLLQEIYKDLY
# Sequence of Peroxisome proliferator-activated receptor gamma/Nuclear receptor coactivator 3 (Q9Y6Q9 whole entry, further chain): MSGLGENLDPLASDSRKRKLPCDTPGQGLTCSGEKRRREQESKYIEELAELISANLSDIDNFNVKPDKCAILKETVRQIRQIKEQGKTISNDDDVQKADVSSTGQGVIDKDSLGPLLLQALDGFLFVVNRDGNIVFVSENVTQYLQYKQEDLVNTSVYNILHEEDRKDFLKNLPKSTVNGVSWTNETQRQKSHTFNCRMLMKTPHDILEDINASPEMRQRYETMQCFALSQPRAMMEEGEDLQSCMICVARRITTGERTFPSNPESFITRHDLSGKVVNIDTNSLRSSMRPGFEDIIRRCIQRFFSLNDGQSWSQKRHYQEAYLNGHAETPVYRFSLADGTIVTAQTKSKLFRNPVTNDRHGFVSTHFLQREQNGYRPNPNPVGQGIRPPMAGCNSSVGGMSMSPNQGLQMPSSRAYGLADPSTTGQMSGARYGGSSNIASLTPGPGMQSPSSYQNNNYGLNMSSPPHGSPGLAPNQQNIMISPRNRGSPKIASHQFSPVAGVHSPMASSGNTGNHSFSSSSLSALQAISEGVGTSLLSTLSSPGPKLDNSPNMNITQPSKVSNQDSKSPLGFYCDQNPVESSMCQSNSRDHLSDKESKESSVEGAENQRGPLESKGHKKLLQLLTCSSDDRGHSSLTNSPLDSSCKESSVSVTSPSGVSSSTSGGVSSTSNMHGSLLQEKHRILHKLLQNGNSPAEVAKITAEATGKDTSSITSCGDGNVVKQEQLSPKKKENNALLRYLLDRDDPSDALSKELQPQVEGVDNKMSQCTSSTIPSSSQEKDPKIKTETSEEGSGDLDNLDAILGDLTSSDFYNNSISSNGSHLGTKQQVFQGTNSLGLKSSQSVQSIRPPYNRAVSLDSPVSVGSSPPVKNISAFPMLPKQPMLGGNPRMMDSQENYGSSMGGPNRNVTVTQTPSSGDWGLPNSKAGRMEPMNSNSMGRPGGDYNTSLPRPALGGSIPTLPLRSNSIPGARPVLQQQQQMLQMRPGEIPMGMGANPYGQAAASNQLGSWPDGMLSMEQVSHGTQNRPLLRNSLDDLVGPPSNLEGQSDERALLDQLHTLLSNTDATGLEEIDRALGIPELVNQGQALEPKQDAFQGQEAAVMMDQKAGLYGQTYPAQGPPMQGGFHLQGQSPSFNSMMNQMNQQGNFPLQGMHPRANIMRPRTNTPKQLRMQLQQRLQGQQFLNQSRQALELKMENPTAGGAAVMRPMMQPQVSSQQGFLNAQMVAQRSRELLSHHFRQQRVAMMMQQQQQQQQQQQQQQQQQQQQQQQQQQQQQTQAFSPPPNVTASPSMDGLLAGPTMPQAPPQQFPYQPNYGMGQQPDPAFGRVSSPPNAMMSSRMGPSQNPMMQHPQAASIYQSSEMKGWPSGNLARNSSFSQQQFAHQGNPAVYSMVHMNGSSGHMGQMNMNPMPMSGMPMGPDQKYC
# BJ [10] = experiment: cytotoxicity toward BJ-TERT fibroblasts, dose response, cell-based, RAS-independent, luminescence (AID 1933); format: functional; conditions: Homo sapiens
# [11] = Luminescence Cell-Based Dose Response HTS to Identify Inhibitors of 5'UTR Stem-Loop Driven Prion Protein mRNA Translation in H4 Neuroglioblastoma Cells. [Related pubchem assays: 1827 (Project Summary), 1813 (Primary HTS)]; format: functional
# [12] = inhibitors of SNCA 5'UTR-driven reporter translation, confirmation, H4 neuroglioma cells, luminescence (AID 1988); format: functional, cell-based
# BJ [13] = experiment: cells; format: functional, cell-based, Homo sapiens; conditions: Homo sapiens, BJ
# BJ [14] = experiment: cytotoxicity toward BJ-TERT-LT-ST fibroblasts, dose response, cell-based, RAS-independent, luminescence (AID 1935); format: functional; conditions: Homo sapiens;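 further: BJ fibroblasts immortalized with TERT plus LT and ST oncogenes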
# [15] = cytotoxicity toward DRD oncogenic fibroblasts, dose response, cell-based, non-viral oncogenic, luminescence (AID 1934); format: functional; conditions: Homo sapiens
# BJ [16] = experiment: cytotoxicity toward Ras-transformed BJeLR fibroblasts, dose response, cell-based, alamar blue fluorescence, cherrypicked samples (AID 2631); format: functional; conditions: Homo sapiens;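 further: confirmatory dose-response assay in RAS-dependent BJ fibroblasts engineered with TERT, LT and ST, with cytotoxicity read by fluorescence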
# Paired box protein Pax-8 = Paired box protein Pax-8 (Homo sapiens, UniProt Q06710); experiment: inhibitors of PAX8-driven TPO luciferase reporter, dose response, RMG-I cells, cherry-pick (AID 687027); format: functional, cell-based;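 further: luciferase reporter driven by Pax8 target thyroperoxidase promoter measured by SteadyGlo luminescence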
# Sequence of Paired box protein Pax-8 (Q06710 whole entry): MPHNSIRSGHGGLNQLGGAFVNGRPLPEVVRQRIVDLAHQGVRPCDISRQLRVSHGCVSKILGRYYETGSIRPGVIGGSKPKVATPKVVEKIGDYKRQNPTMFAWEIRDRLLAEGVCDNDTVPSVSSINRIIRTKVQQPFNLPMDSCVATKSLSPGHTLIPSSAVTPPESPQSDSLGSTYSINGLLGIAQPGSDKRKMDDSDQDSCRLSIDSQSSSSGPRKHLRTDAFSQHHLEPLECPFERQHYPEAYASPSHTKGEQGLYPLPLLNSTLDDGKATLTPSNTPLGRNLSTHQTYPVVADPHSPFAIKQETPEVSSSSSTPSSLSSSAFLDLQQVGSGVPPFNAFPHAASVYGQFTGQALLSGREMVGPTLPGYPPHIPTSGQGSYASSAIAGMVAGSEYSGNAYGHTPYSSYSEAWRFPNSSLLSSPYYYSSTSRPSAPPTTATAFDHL
# Cytochrome P450 3A4 = Cytochrome P450 3A4 (Homo sapiens, UniProt P08684);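 further: CYP3A4 tested as one member of a cytochrome P450 panel screen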
# Sequence of Cytochrome P450 3A4 (P08684 whole entry): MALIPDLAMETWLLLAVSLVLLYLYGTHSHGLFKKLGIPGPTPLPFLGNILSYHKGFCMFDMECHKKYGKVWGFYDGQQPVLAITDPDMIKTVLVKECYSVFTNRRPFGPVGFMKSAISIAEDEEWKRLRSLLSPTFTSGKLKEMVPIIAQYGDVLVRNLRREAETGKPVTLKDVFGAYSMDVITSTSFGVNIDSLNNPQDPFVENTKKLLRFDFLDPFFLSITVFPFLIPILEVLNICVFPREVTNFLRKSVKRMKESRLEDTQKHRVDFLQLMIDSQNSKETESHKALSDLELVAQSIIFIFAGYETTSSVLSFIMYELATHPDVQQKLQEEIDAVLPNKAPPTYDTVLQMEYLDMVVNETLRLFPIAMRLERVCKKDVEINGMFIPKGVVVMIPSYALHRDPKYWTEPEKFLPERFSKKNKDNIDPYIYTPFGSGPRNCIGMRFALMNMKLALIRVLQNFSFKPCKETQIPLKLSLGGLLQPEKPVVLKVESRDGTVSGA
# Vero = Vero cell cytotoxicity, cytotoxicity control for flavivirus capping enzyme inhibitors (AID 588742); format: functional; conditions: Chlorocebus sabaeus
# Genome polyprotein = Genome polyprotein (dengue virus type 2, UniProt P29990); experiment: Dengue-2 NS5 methyltransferase inhibitors, primary screen, biochemical, confirmation dose response (AID 588689); format: functional
# Sequence of Genome polyprotein (P29990 2492-3391 limits assumed): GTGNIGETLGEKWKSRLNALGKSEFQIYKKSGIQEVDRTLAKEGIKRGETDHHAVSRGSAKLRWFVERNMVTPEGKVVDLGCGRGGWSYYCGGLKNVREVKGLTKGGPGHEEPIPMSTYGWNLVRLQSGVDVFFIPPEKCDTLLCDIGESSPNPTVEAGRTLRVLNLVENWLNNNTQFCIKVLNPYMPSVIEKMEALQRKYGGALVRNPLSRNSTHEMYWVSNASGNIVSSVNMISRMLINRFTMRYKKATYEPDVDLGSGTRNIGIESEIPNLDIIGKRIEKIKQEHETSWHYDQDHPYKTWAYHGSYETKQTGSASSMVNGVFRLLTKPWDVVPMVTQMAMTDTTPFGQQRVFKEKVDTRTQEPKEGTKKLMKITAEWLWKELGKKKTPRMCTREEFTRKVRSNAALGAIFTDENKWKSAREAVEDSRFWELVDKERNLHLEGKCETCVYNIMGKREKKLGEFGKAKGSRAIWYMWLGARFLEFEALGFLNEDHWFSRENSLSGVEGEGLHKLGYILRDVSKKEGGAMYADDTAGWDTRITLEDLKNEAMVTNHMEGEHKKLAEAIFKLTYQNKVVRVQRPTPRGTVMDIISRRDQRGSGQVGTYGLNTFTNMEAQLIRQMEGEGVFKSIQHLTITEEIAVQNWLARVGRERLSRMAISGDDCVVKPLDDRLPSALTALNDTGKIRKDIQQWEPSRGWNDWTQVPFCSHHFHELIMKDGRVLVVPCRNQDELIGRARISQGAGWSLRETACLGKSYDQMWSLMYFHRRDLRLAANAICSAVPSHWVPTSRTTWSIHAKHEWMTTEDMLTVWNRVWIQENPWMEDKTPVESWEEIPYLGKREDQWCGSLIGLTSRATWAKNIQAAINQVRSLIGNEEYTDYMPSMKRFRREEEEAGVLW
# [17] = biological target: T2, Endoribonuclease toxin MazF (Escherichia coli K-12, UniProt P0AE70); experiment: MazF toxin RNase activators, dose response, biochemical, fluorescence, single-stranded RNA substrate, uHTS hits (AID 588481); format: functional
# T2 sequence (P0AE70 whole entry): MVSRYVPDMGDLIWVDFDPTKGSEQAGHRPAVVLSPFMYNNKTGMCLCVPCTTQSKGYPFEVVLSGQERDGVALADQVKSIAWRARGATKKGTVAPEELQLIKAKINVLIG
# [18] = biological target: T2, Endoribonuclease toxin MazF; experiment: fluorescent RNA oligo signal without MazF, dose response, counter-screen for MazEF activator project, biochemical, fluorescence, single-stranded RNase substrate (AID 588502); format: functional
# [19] = tested on: Streptococcus sp. 'group A'; experiment: growth inhibition of control SK(-) GAS strain, dose response, counter-screen for streptokinase expression inhibitor project, luminescence, kanamycin, BacTiterGlo, confirmation (AID 1900); format: functional, organism-based
# Streptokinase A = biological target: T3, Streptokinase A (Streptococcus pyogenes serotype M1, UniProt P10520); experiment: S. pyogenes streptokinase expression inhibitors, potency, dose response, plasminogen activation absorbance, OD405 (AID 1914); format: functional, Streptococcus pyogenes M1 GAS;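 further: secreted streptokinase activity via plasminogen activation per viability signal from cell pellet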
# T3 sequence (P10520 whole entry): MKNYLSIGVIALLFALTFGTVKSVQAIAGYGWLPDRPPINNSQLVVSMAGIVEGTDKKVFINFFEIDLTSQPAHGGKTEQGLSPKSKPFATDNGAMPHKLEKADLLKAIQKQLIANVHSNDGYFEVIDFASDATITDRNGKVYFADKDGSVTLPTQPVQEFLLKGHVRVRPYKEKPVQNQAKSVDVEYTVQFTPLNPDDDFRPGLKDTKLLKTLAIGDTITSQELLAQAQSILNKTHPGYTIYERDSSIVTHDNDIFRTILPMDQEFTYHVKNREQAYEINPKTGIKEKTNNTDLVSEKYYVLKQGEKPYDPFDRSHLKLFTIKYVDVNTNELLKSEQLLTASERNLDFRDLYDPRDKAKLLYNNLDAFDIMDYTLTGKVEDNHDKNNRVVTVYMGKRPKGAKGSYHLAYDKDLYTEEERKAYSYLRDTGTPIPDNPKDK
# Streptococcus = experiment: Group A Streptococcus viability loss, dose response, counter-screen for streptokinase expression inhibitor project, luminescence, BacTiterGlo (AID 1915); format: functional, organism-based;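 further: potency for reduction of bacterial viability or growth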
compound,measurement,setting,value
Cc1cc(C(C#N)c2ccccc2F)n2ncnc2n1 (configuration not stated),EC50,[1],> 150 µM (inconclusive)
same,EC50,[2],1.28 µM (active)
same,EC50,[3],> 180 µM (inactive)
same,AC50,[4],34.3 µM (active)
same,EC50,[5],> 160 µM (inactive)
same,AC50,Escherichia coli,36.4 µM (active)
FC(F)(F)c1nnc2c(Sc3ccc(Cl)cc3)nc3ccccc3n12,EC50,[6],21.7 µM (not active)
same,EC50,[7],24.3 µM (not active)
same,EC50,[8],> 120 µM (not active)
same,EC50,[9],32.3 µM (not active)
same,EC50,BJ [10],3.28 µM (inconclusive)
same,EC50,[11],9.77 µM (active)
same,EC50,[12],> 120 µM (not active)
same,EC50,BJ [13],25.2 µM (active)
same,EC50,BJ [14],5.54 µM (inconclusive)
same,EC50,[15],9.34 µM (inconclusive)
same,EC50,BJ [16],0.565 µM (active)
same,AC50,Paired box protein Pax-8,1.27 µM (active)
same,AC50,Cytochrome P450 3A4,inconclusive
CCCCCCCCn1c(=O)c(C(=O)OCC)c(O)c2ccccc21,CC50,Vero,> 40 µM (active)
same,IC50,Genome polyprotein,77.2 µM (active)
CC(=O)N1CC[C+]([N-]NS(=O)(=O)c2cccc([N+](=O)[O-])c2)CC1,EC50,[17],> 99 µM (inactive)
same,EC50,[18],23.9 µM (inactive)
O=C(Nc1nnc(-c2ccco2)o1)c1ccc(Cl)cc1,EC50,[1],> 150 µM (inactive)
same,EC50,[19],0.983 µM (active)
same,EC50,Streptokinase A,> 150 µM (not active)
same,EC50,[2],0.9 µM (active)
same,EC50,[3],> 180 µM (inactive)
same,EC50,Streptococcus,15.6 µM (active)
same,EC50,[5],> 150 µM (inactive)
O=C(COC(=O)c1ccccc1C(=O)N1CCN(c2ccccc2)CC1)NCc1ccccc1,EC50,[17],> 99 µM (inactive)
same,EC50,[18],> 99 µM (inactive)

# From ChEMBL document CHEMBL1201862, “PubChem BioAssay data set” (2004)
